Source: paper PMC10862539, “Chelation of Mitochondrial Iron as an Antiparasitic Strategy” (ACS Infectious Diseases, 2024)
Where “and” joins values, the source holds several entries; their conditions need not be identical. Identical values can stand only once. Like-named read-outs stand apart in the source and are kept apart here.

Columns and labels:
[1] = test system: G. intestinalis; assay: Drug sensitivity assay, G. intestinalis (flow cytometry); type: cell-based; details: for EC50: Giardia duodenalis, 24 h
Experimental: (§1) All organisms were cultivated according to the conditions summarized in Table S2, which also includes strain specifications. Dose–response curves were obtained by their cultivation on 96 well plates in a 2-fold series dilution of the appropriate drug, in a total volume of 200 μL (with the exception of P. falciparum, where the total volume was 100 μL). Iron supplementation was achieved by mixing the compound with Fe-NTA in an equimolar ratio prior to setting up the experiment. Results were plotted and processed using Prism 8.0 (GraphPad Software). A two-tailed unpaired t-test was performed to assess the significance of the difference between mitoDFO with and without added iron. Selectivity was calculated as the ratio of the average EC50 value for human fibroblasts to the average EC50 value for the appropriate pathogen. All data were obtained from a minimum of three independent biological replicates.

[2] = test system: Trypanosoma brucei 427 bloodstream forms; assay: T. brucei growth curves and doubling time (flow cytometry); type: cell-based; details: for Average doubling time: calculated between 24 and 48 h
Experimental: Bloodstream T. brucei 427 cells were inoculated to a concentration of […] and incubated with the addition of mitoDFO (0.025 and 0.1 μM) or DFO (2.5 and 10 μM) in aerobic flasks in a total volume of 5 mL in 5% CO2 at 37 °C. Control with no compound was used to obtain reference values. At time points 24, 36, 48, and 72 h, a 20 μL sample was collected, diluted in growth medium, and measured on a Guava EasyCyte 8HT flow cytometer (Luminex) to assess concentration in previously experimentally prepared settings. The culture was simultaneously observed by light microscopy to confirm the cell viability. The growth curve was plotted by using Prism 8.0 (GraphPad Software). All conditions were measured in three biologically independent replicates. Doubling time was calculated between 24 and 48 h time points using the online calculator,[45] and each of the conditions was compared to the untreated culture using a two-tailed unpaired t-test.

[3] = test system: cytosolic pyruvate kinase; assay: Pyruvate kinase activity in cytosolic fraction of treated T. brucei 427; type: cell-based, Trypanosoma brucei; details: 0.12 μM compound, 24 h
Experimental: T. brucei 427 bloodstream forms were preincubated for 24 h in appropriate conditions (0.12 μM mitoDFO, 0.12 μM DFO, and no addition) and harvested, and cytosolic and mitochondrial fractions were separated by digitonin fractionation as described previously.[46] Briefly, cells were spun down (1200 g, 15 min, 4 °C) and resuspended in SHE buffer (250 mM sucrose, 25 mM HEPES, 1 mM EDTA, pH 7.4), and protein concentration was measured using a BCA kit (Sigma-Aldrich). Subsequently, cells were transferred into HBSS (Sigma-Aldrich) and digitonin (Calbiochem) was added in the protein/digitonin ratio of 1/0.15 for 4 min and spun (21 000 g, 2 min, 4 °C). […] The activities of cytosolic pyruvate kinase and mitochondrial threonine dehydrogenase were assessed in all conditions using the spectrophotometric assay at […], as described in ref ([46]), and served both as markers of successful fraction preparation and to assess the effect of the studied compounds. Briefly, pyruvate kinase was measured in TEA buffer (0.1 M triethanolamine, 5 mM MgSO4, 50 mM KCl, pH 7.6) with added 2.8 mM phosphoenolpyruvate, 2 mM ADP, 0.3 mM NADH, and lactate dehydrogenase. Threonine dehydrogenase was measured in 0.2 M Tris–HCl buffer, pH 8.6, 0.25 KCl with 120 mM threonine, and 2.5 mM NAD^+. Fumarase was measured at […] in 2 mM Tris–HCl buffer, pH 7.5, with 20 mM malate.

[4] = test system: intracellular Leishmania mexicana amastigotes; assay: Intracellular L. mexicana infection assay, GFP amastigotes in macrophages; type: cell-based; details: for EC50: Leishmania mexicana, Macrophage, read-out: EC50 infection assay Leishmania mexicana
Experimental: (§2) Approximately 10 000 murine macrophages per well were seeded on 96 well plate, and a suspension of 60 000 L. mexicana GFP-expressing promastigotes was added to each well and left to infect the mammal cells for 72 h in a cultivation medium under the conditions described in Table S2. 2-fold dilution series starting with 100 μM of either mitoDFO, DFO, or Amphotericin B in a regular growth medium were added, and cultures were incubated for further 72 h in the same conditions. Macrophage cells were washed and resuspended in growth medium and detached by pipetting, and their concentration in each well was measured on a Guava EasyCyte 8HT flow cytometer (Luminex). The GFP signal of internalized L. mexicana amastigotes in each macrophage was detected using a 488 nm excitation laser and a 525/30 nm detector. Median fluorescence graphs were plotted, and EC50 values for both macrophages and intracellular L. mexicana were calculated using Prism 8.0 (GraphPad Software).

[5] = test system: C. neoformans; assay: Drug sensitivity assay, C. neoformans (OD600); type: cell-based, Cryptococcus neoformans; details: for EC50: Cryptococcus neoformans, 72 h
Experimental: as §1

[6] = test system: murine macrophage; assay: Intracellular L. mexicana infection assay, macrophage population; type: cell-based, mouse; details: Mus musculus, Macrophage, read-out: EC50 infection assay murine macrophage
Experimental: as §2

[7] = test system: N. fowleri; assay: Drug sensitivity assay, N. fowleri (flow cytometry); type: cell-based; details: for selectivity (for −Fe): EC50 human fibroblasts / EC50 N. fowleri; for EC50: Naegleria fowleri, 72 h
Experimental: as §1

[8] = test system: B. divergens; assay: Drug sensitivity assay, B. divergens in bovine erythrocytes (flow cytometry); type: cell-based, Babesia divergens; details: for EC50: Babesia divergens, Erythrocyte, 48 h; for selectivity (for −Fe): EC50 human fibroblasts / EC50 B. divergens
Experimental: as §1

[9] = test system: C. albicans; assay: Drug sensitivity assay, C. albicans (OD600); type: cell-based, Candida albicans; details: for EC50: Candida albicans, 48 h
Experimental: as §1

[10] = test system: T. brucei 427 (BSF); assay: Drug sensitivity assay, T. brucei 427 bloodstream form (resazurine); type: cell-based, Trypanosoma brucei; details: for selectivity (for −Fe): EC50 human fibroblasts / EC50 T. brucei 427 (BSF); for EC50: Trypanosoma brucei, 72 h
Experimental: as §1

[11] = target: isolated mitochondria of T. brucei 427; assay: Mitochondrial membrane intactness in isolated mitochondria (threonine dehydrogenase marker); set-up: species or system Trypanosoma brucei; details: threonine dehydrogenase activity as marker, read-out: 50% membrane intactness (inner membrane permeability increased by 50%)
Experimental: Mitochondrial intactness was assessed by isolating the mitochondrial fraction of untreated cells, as described above, without the addition of Triton X-100 and adding different concentrations of mitoDFO. Threonine dehydrogenase activity was measured as a marker of the disintegration of mitochondrial membranes. Triton X-100 was used to disrupt membrane integrity and served as a positive control to obtain maximum activity. All experiments were performed in at least three biologically independent replicates and plotted and analyzed using Prism 8.0 (GraphPad Software).

[12] = approximately half the EC50 concentration of the compound

## CC(=O)N(O)CCCCCNC(=O)CCC(=O)N(O)CCCCCNC(=O)CCC(=O)N(O)CCCCCN [DFO, Deferoxamine, reference compound]
[1]; iron-free compound, G. intestinalis, read-out: EC50 –Fe
  EC50: > 100 µM
[1]; pre-treated with equimolar iron, G. intestinalis, read-out: EC50 +Fe
  EC50: > 100 µM
[2]; 2.5 μM DFO
  Average doubling time: 8.28 h
[2]; 10 μM DFO
  Average doubling time: 14.17 h
[2]; [12]
  cell proliferation (growth curve): slows down cell proliferation
[3]
  pyruvate kinase activity: no difference in activity
[4]; intracellular amastigotes, 72 h treatment
  EC50: 47.1 ± 2.91 µM
[5]; iron-free compound, C. neoformans, read-out: EC50 –Fe
  EC50: > 100 µM
[5]; pre-treated with equimolar iron, C. neoformans, read-out: EC50 +Fe
  EC50: > 100 µM
[6]; infected macrophages, 72 h treatment
  EC50: 45.3 ± 3.09 µM
[7]
  selectivity (for −Fe): >5
[7]; iron-free compound, N. fowleri, read-out: EC50 –Fe
  EC50: 19.5 ± 5.9 µM
[7]; pre-treated with equimolar iron, N. fowleri, read-out: EC50 +Fe
  EC50: > 100 µM
[8]; iron-free compound, B. divergens, read-out: EC50 –Fe
  EC50: 10.8 ± 1.3 µM
[8]; pre-treated with equimolar iron, B. divergens, read-out: EC50 +Fe
  EC50: > 50 µM
[8]
  selectivity (for −Fe): >9
[9]; iron-free compound, C. albicans, read-out: EC50 –Fe
  EC50: > 100 µM
[9]; pre-treated with equimolar iron, C. albicans, read-out: EC50 +Fe
  EC50: > 100 µM
[10]
  selectivity (for −Fe): >5
[10]; iron-free compound, T. brucei 427 (BSF), read-out: EC50 –Fe
  EC50: 22 ± 1.2 µM
[10]; pre-treated with equimolar iron, T. brucei 427 (BSF), read-out: EC50 +Fe
  EC50: > 50 µM

## CC(=O)N(O)CCCCCNC(=O)CCC(=O)N(O)CCCCCNC(=O)CCC(=O)N(O)CCCCCN(CCCCCCCCCC[P+](c1ccccc1)(c1ccccc1)c1ccccc1)CCCCCCCCCC[P+](c1ccccc1)(c1ccccc1)c1ccccc1 [mitoDFO]
[1]; read-out: EC50 –Fe
  EC50: > 50 µM
[1]; in words
  effect on G. intestinalis: not affected
[11]
  EC50: 63.2 µM and 63 µM
[2]; 0.025 μM mitoDFO
  Average doubling time: 8.07 h
[2]; [12]
  cell proliferation (growth curve): does not affect cell proliferation
[2]; twice the EC50 concentration
  cell proliferation (growth curve): stops its growth
[3]
  pyruvate kinase activity: no difference in activity
[4]
  decrease in EC50 concentration, intracellular amastigotes versus axenic parasites: 2 fold
[4]; 72 h
  EC50: 0.67 ± 0.24 µM
[5]; C. neoformans
  DFO/mitoDFO ratio (−Fe): >50
  mitoDFO EC50 ratio + Fe/–Fe: 2.1
[5]; read-out: EC50 –Fe
  EC50: 2 ± 0.5 µM
[5]; EC50 human fibroblasts / EC50 C. neoformans
  selectivity (for −Fe): 4
[6]; 72 h
  EC50: 4.67 ± 1.18 µM
[7]
  selectivity (for −Fe): 1
[7]; N. fowleri
  DFO/mitoDFO ratio (−Fe): 2.9
  mitoDFO EC50 ratio + Fe/–Fe: 3.0
[7]; read-out: EC50 –Fe
  EC50: 6.7 ± 0.7 µM
[8]; B. divergens
  DFO/mitoDFO ratio (−Fe): 4.7
  mitoDFO EC50 ratio + Fe/–Fe: 2.5
[8]; read-out: EC50 –Fe
  EC50: 2.3 ± 0.8 µM
[8]
  selectivity (for −Fe): 4
[9]; C. albicans
  DFO/mitoDFO ratio (−Fe): >27.8
  mitoDFO EC50 ratio + Fe/–Fe: 2.6
[9]; read-out: EC50 –Fe
  EC50: 3.6 ± 1.7 µM
[9]; EC50 human fibroblasts / EC50 C. albicans
  selectivity (for −Fe): 2
[10]
  selectivity (for −Fe): 151
[10]; T. brucei 427 (BSF)
  DFO/mitoDFO ratio (−Fe): 372.9
  mitoDFO EC50 ratio + Fe/–Fe: 2.1
[10]; read-out: EC50 –Fe
  EC50: 0.059 ± 0.022 µM
